Reference: US20250381207A1, “FLAVONOID-CONTAINING COMPOSITIONS AND TREATMENT OF VIRAL DISEASES WITH SAME” (priority 2024, published 2025)

Tests used:
ACE2 = ACE2 (Homo sapiens, UniProt Q9BYF1); experiment: In vitro fluorescence ligand binding assay (relative ACE2 inhibition); conditions: for remaining activity at 100 µM: read-out: % of control/blank fluorescence; for IC50: fluorescence binding assay, relative ACE2 inhibition
Procedure: A fluorescence ligand bind assay (Lora Benoit, Vinayak Shenoy, Simon Meykler, Ali Mohseni. SARS-COV-2 spike protein 13-mer subdomain corresponds to the drug-binding domain of glutamyl-propyl-tRNA synthetase 1 and is targetable by halofuginone, 22 Jul. 2021, PREPRINT (Version 1) available at Research Square [world wide web at doi.org/10.21203/rs.3.rs-738132/v1]) used to test the binding of various flavonoids. Fluorescence values increased over time (likely due to evaporation at 37° C.), but differences in fluorescence intensity after a kinetic read may be used to calculate relative ACE2 inhibition.

SARS-COV-2 spike protein = molecular target: T1, SARS-COV-2 spike protein (Severe acute respiratory syndrome coronavirus 2, UniProt P0DTC2); experiment: Surface plasmon resonance (SPR) analysis; assay type: binding; conditions: for Activity (actual) / Activity (calculated) / Rmax (actual) / Rmax (calculated): SPR, analyte 0.4-100 μM, SCK; for Rmax (actual) / Rmax (calculated): 25° C.
T1 construct: Target/ligand: SARS-COV2 RBD; 4815 RU captured; purchased R&D Systems, Inc., Minneapolis, MN AVI10500

[1] = SPR FIG. 15A, 50 μM, SARS-COV2 RBD on SA chip

ACE2, sequence (Q9BYF1 18-805): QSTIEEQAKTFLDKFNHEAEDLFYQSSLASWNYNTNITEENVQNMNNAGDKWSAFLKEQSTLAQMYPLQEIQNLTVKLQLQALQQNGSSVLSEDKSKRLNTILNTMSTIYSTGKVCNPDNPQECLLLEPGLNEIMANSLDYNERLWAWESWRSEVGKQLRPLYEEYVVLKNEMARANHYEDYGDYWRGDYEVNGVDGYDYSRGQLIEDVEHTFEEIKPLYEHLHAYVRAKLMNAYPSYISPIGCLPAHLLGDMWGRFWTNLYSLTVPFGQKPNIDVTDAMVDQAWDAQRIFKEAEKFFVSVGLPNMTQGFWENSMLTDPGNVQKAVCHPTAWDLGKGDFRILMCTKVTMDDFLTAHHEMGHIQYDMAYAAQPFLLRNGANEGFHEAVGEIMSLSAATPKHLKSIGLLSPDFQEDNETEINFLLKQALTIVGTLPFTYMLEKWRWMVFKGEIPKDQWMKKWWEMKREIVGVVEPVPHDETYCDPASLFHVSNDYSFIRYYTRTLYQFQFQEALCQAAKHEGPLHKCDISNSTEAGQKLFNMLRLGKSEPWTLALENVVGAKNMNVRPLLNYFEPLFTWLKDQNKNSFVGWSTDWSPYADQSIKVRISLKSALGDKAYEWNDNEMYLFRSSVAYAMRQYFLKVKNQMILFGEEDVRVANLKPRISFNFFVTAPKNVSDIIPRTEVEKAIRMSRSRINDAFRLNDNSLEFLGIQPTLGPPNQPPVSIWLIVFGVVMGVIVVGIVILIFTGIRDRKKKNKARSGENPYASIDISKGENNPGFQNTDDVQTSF

Compound	remaining activity at 100 µM (ACE2) [%]	IC50 (ACE2) [µM]	Activity (actual) (SARS-COV-2 spike protein; SARS-COV2 RBD on SA chip) [%]	Activity (calculated) (SARS-COV-2 spike protein; SARS-COV2 RBD on SA chip) [%]	Rmax (actual) (SARS-COV-2 spike protein; SARS-COV2 RBD on SA chip) [RU]	Rmax (calculated) (SARS-COV-2 spike protein; SARS-COV2 RBD on SA chip) [RU]	also measured
O=C1C[C@@H](c2ccc(O)cc2)Oc2cc(O)cc(O)c21 [Naringenin, naringenin]	57	36.2	–	–	–	–	–
COc1ccc(C[C@H](N)C(=O)N[C@H]2[C@@H](O)[C@H](n3cnc4c(N(C)C)ncnc43)O[C@@H]2CO)cc1 [Puromycin, puromycin, reference compound]	–	–	–	–	–	–	Percent viable cells (%) normalized to vehicle control and puromycin (Calu-3 cell line; human): 0.00%
C[C@@H]1O[C@@H](OC[C@H]2O[C@@H](Oc3c(-c4ccc(O)c(O)c4)oc4cc(O)cc(O)c4c3=O)[C@H](O)[C@@H](O)[C@@H]2O)[C@H](O)[C@H](O)[C@H]1O [Rutin, rutin]	44	39.4	21	17	21.0	16.7	–
COc1ccc(C2CC(=O)c3c(O)cc(O)cc3O2)cc1O (stereo not drawn) [hesperetin]	–	–	–	–	–	–	Calu-3 viability after compound + SARS-COV-2 spike protein treatment, in words (Calu-3 cell line): decrease of viability in a hesperetin concentration-dependent manner
COc1ccc(-c2cc(=O)c3c(OC)c(OC)c(OC)c(OC)c3o2)cc1OC [nobiletin]	60	26.5	–	–	–	–	–
hesperidin	–	–	72	40	72.7	40.4	Activity (50 μM) (SARS-COV-2 spike protein; [1]): 98%; Rmax (50 μM) (SARS-COV-2 spike protein; [1]): 94.3 RU; SPR binding activity, in words (SARS-COV-2 spike protein; initial experiment, MCK mode from 10 μM): displayed binding activity with slow dissociation; activity (inhibitory effect on binding to SARS-COV-2 spike protein and ACE2) (SARS-COV-2 spike protein; summary statement of Example 1): 82%; viability normalized to SARS-COV-2 spike protein treatment alone and vehicle (Calu-3 cell line): over 80%
